Measurements taken from patent publication US20200009173A1, “TRIAZOLE-CONTAINING MACROLIDES AND OPHTHALMIC USES THEREFOR” (Tetard, Inc., priority 2017, published 2020).
Values after ≈ are worked out from the molar mass of the structure shown. Read-outs that look alike come from different tables or passages of the source.

How the values were obtained:
[1] = test system: Streptococcus pneumoniae; assay: MIC, Streptococcus pneumoniae (150 strains); type: cell-based
[2] = test system: Streptococcus pyogenes; assay: MIC, Streptococcus pyogenes; type: cell-based; settings: Streptococcus pyogenes
[3] = test system: Haemophilus influenzae; assay: MIC, Haemophilus influenzae (100 strains); type: cell-based
[4] = test system: Legionella pneumophila; assay: microbe, parasite or virus in culture; type: cell-based
[5] = test system: Mycoplasma pneumoniae; assay: MIC, Mycoplasma pneumoniae (38 strains); type: cell-based
[6] = test system: P. Acnes; assay: MICs of solithromycin and comparator drugs against P. acnes; type: cell-based; settings: Cutibacterium acnes; 51 species
Text: EXAMPLE. The formulations described herein show overall higher potency against ocular pathogens than commercial standards. MICs (μg/ml) of Solithromycin and Comparator Drugs against P. Acnes (51 Species)

[7] = test system: S. pneumoniae; assay: MICs of solithromycin and comparator drugs, S. pneumoniae (30 species); type: cell-based
Text: (§1) EXAMPLE. The formulations described herein show overall higher potency against ocular pathogens than commercial standards.
(§2) MICs (μg/ml) of Solithromycin and Comparator Drugs against Bacterial Species

[8] = test system: H. influenzae; assay: MICs of solithromycin and comparator drugs, H. influenzae (30 species); type: cell-based
Text: as §1, §2

[9] = test system: MSSA; assay: MICs of solithromycin and comparator drugs, MSSA (31 species); type: cell-based
Text: as §1, §2

[10] = test system: MSRA; assay: MICs of solithromycin and comparator drugs, MSRA (30 species); type: cell-based
Text: as §1, §2

[11] = test system: S. epidermidis; assay: MICs of solithromycin and comparator drugs, S. epidermidis (30 species); type: cell-based
Text: as §1, §2

[12] = test system: Corynebacterium spp.; assay: MIC, Corynebacterium spp.; type: cell-based; settings: Corynebacterium; N = 10
[13] = test system: Staphylococcus aureus; assay: MIC, Staphylococcus aureus; type: cell-based; settings: N = 201
[14] = test system: CA-MRSA; assay: MIC, CA-MRSA; type: cell-based, Staphylococcus aureus; settings: N = 30
[15] = test system: Haemophilus parainfluenzae; assay: MIC, Haemophilus parainfluenzae; type: cell-based; settings: N = 11
[16] = test system: Listeria monocytogenes; assay: MIC, Listeria monocytogenes; type: cell-based; settings: N = 10
[17] = test system: Moraxella catarrhalis; assay: MIC, Moraxella catarrhalis; type: cell-based; settings: N = 21
[18] = test system: Mycobacterium avium; assay: MIC, Mycobacterium avium; type: cell-based; settings: Mycobacterium avium; N = 30
[19] = test system: Mycoplasma hominis; assay: MIC, Mycoplasma hominis; type: cell-based; settings: N = 13
[20] = test system: Neisseria gonorrhoeae; assay: MIC, Neisseria gonorrhoeae; type: cell-based; settings: N = 34
[21] = test system: Peptostreptococcus spp.; assay: MIC, Peptostreptococcus spp.; type: cell-based; settings: Peptostreptococcus; N = 10
[22] = test system: Ureaplasma urealyticum; assay: MIC, Ureaplasma urealyticum; type: cell-based; settings: N = 10
[23] = test system: Viridans group streptococci; assay: MIC, Viridans group streptococci; type: cell-based; settings: N = 51
[24] = test system: TNFα; assay: TNFα production in LPS-stimulated PMA-differentiated U937 cells (ELISA); type: cell-based, human; settings: concentration not given
Experimental: (§3) EXAMPLE. […] Cells. The human monocytic cell line U937 was obtained from the American Type Culture Collection (ATCC, Rockville, Md.). PBMCs from COPD patients were obtained from Brompton hospital and separated by AccuSPIN (Sigma-Aldrich). […] U937 cells were differentiated into adherent macrophage-like morphology by exposure to PMA (50 ng/ml) for 48 h in complete growth medium. Cell viability was assessed microscopically by trypan blue staining. Cell toxicity was determined by MTT assay as needed. This study was approved by the ethics committee of the Royal Brompton Hospitals, and all subjects gave written informed consent. Cytokine ELISA. TNFα and IL-8 concentrations in the supernatant of cell cultures were determined by sandwich ELISA according to the manufacturer's instructions (R&D Systems Europe, Abingdon, UK). Statistical analysis. The results were expressed as the mean±SEM. Comparisons of data in two groups were performed using the Student's t test or the Wilcoxon signed rank test. Multiple comparisons were made by one-way ANOVA with post hoc test (Dunnett's) as appropriate. The difference was considered significant at p<0.05. […] Anti-inflammatory effects of solithromycin in U937 cells.

[25] = test system: CXCL8; assay: CXCL8 (IL-8) production in LPS-stimulated PMA-differentiated U937 cells (ELISA); type: cell-based, human; settings: concentration not given
Experimental: as §3

[26] = test system: MMP9; assay: MMP9 activity in PMA-stimulated U937 cells (gelatin zymography); type: cell-based, human
Experimental: EXAMPLE. […] Cells. The human monocytic cell line U937 was obtained from the American Type Culture Collection (ATCC, Rockville, Md.). PBMCs from COPD patients were obtained from Brompton hospital and separated by AccuSPIN (Sigma-Aldrich). […] U937 cells were differentiated into adherent macrophage-like morphology by exposure to PMA (50 ng/ml) for 48 h in complete growth medium. Cell viability was assessed microscopically by trypan blue staining. Cell toxicity was determined by MTT assay as needed. This study was approved by the ethics committee of the Royal Brompton Hospitals, and all subjects gave written informed consent. Zymography. MMP9 enzyme activity was measured by gelatin zymography. […] After electrophoresis, gels were incubated and rinsed with Novex® zymogram renaturing buffer (Invitrogen) for 30 min at room temperature. The gels were then rinsed in Novex® zymogram developing buffer (Invitrogen) for 30 min at room temperature prior to overnight incubation in the developing buffer at 37° C. After incubation, the gels were stained using a Colloidal Blue Staining Kit (Invitrogen) to visualize the zymogen bands. Statistical analysis. The results were expressed as the mean±SEM. Comparisons of data in two groups were performed using the Student's t test or the Wilcoxon signed rank test. Multiple comparisons were made by one-way ANOVA with post hoc test (Dunnett's) as appropriate. The difference was considered significant at p<0.05.

## CC[C@H]1OC(=O)[C@H](C)[C@@H](O[C@H]2C[C@@](C)(OC)[C@@H](O)[C@H](C)O2)[C@H](C)[C@@H](O[C@@H]2O[C@H](C)C[C@H](N(C)C)[C@H]2O)[C@](C)(O)C[C@@H](C)CN(C)[C@H](C)[C@@H](O)[C@]1(C)O [Azithromycin, azithromycin]
[1]; N = 150
  MIC90: >16 µg/mL
[1]; Streptococcus pneumoniae, 150 strains, read-out: MIC90
  MIC90: > 16 µg/mL
[1]; Streptococcus pneumoniae, N = 150
  MIC50: > 16 µg/mL
[2]
  MIC50: > 16 µg/mL
[2]; 100 strains
  MIC90: > 16 µg/mL
[2]; N = 407 (CEM-101), N = 100 (azithromycin)
  MIC90: > 16 µg/mL
[3]; Haemophilus influenzae, 100 strains, read-out: MIC90
  MIC90: 2 µg/mL (≈ 2.67 µM)
[3]; Haemophilus influenzae, N = 100
  MIC50: 2 µg/mL (≈ 2.67 µM)
[3]; N = 100
  MIC90: 2 µg/mL (≈ 2.67 µM)
  MIC Range: 0.25 to 4 µg/mL
[4]; Legionella pneumophila
  MIC50: 1 µg/mL (≈ 1.34 µM)
  MIC90: 2 µg/mL (≈ 2.67 µM)
[4]; N = 30
  MIC90: 2 µg/mL (≈ 2.67 µM)
[5]; Mycoplasma, 38 strains, read-out: MIC90
  MIC90: 0.0005 µg/mL (≈ 0.000668 µM)
[5]; Mycoplasma, N = 38
  MIC50: 0.00025 µg/mL (≈ 0.000334 µM)
[5]; N = 38
  MIC90: 0.0005 µg/mL (≈ 0.000668 µM)
[6]
  MIC50: 0.06 µg/mL (≈ 0.0801 µM)
  MIC90: 4 µg/mL (≈ 5.34 µM)
[7]
  I (intermediate susceptibility): 3%
  NS (not susceptible): 23%
  S (susceptible): 73%
[7]; Streptococcus pneumoniae
  MIC50: 0.06 µg/mL (≈ 0.0801 µM)
  MIC90: 8 µg/mL (≈ 10.7 µM)
[8]
  I (intermediate susceptibility): 0%
  MIC Range: 1 to 4 µg/mL
  NS (not susceptible): 0%
  S (susceptible): 100%
[8]; Haemophilus influenzae
  MIC50: 2 µg/mL (≈ 2.67 µM)
  MIC90: 2 µg/mL (≈ 2.67 µM)
[9]
  I (intermediate susceptibility): 0%
  NS (not susceptible): 39%
  S (susceptible): 61%
[9]; Staphylococcus aureus, MSSA
  MIC50: 2 µg/mL (≈ 2.67 µM)
  MIC90: > 32 µg/mL
[10]
  MIC50: > 32 µg/mL
  MIC90: > 32 µg/mL
[10]; 30 species
  I (intermediate susceptibility): 0%
  NS (not susceptible): 90%
  S (susceptible): 10%
[11]
  I (intermediate susceptibility): 0%
  NS (not susceptible): 63%
  S (susceptible): 37%
[11]; Staphylococcus epidermidis
  MIC50: > 32 µg/mL
  MIC90: > 32 µg/mL
[12]
  MIC50: > 16 µg/mL
  MIC90: > 16 µg/mL
[13]
  MIC50: > 16 µg/mL
  MIC90: > 16 µg/mL
[14]
  MIC Range: >16 µg/mL
[14]; Staphylococcus aureus, MRSA
  MIC50: > 16 µg/mL
  MIC90: > 16 µg/mL
[15]; Haemophilus parainfluenzae
  MIC50: 1 µg/mL (≈ 1.34 µM)
  MIC90: 2 µg/mL (≈ 2.67 µM)
[15]
  MIC Range: 0.5-2^ μg/mL
[16]; Listeria monocytogenes
  MIC50: 0.5 µg/mL (≈ 0.668 µM)
  MIC90: 1 µg/mL (≈ 1.34 µM)
[16]
  MIC Range: 0.5-1^ μg/mL
[17]; Moraxella catarrhalis
  MIC50: 0.03 µg/mL (≈ 0.0401 µM)
  MIC90: 0.06 µg/mL (≈ 0.0801 µM)
[17]
  MIC Range: 0.03 to 0.5 µg/mL
[18]
  MIC50: 16 µg/mL (≈ 21.4 µM)
  MIC90: 16 µg/mL (≈ 21.4 µM)
[19]
  MIC Range: 0.5-4^ μg/mL
[20]
  MIC Range: 0.06 to 2 µg/mL
[20]; Neisseria gonorrhoeae
  MIC50: 0.25 µg/mL (≈ 0.334 µM)
  MIC90: 0.5 µg/mL (≈ 0.668 µM)
[21]
  MIC50: 8 µg/mL (≈ 10.7 µM)
  MIC90: > 64 µg/mL
[22]
  MIC Range: 0.5-4^ μg/mL
[22]; Ureaplasma urealyticum
  MIC50: 2 µg/mL (≈ 2.67 µM)
  MIC90: 4 µg/mL (≈ 5.34 µM)
[23]
  MIC50: 0.12 µg/mL (≈ 0.16 µM)
  MIC90: 4 µg/mL (≈ 5.34 µM)
  MIC Range: ≤0.008-16 ^ μg/mL
[24]
  effect on TNFα production: did not inhibit
[25]
  effect on IL-8 production: did not inhibit
[26]
  inhibitory effect on MMP9 activity, lower than solithromycin: 10 fold
